{"source": "patent US8586588B2", "about": "“Aryl pyridazinone derivatives and their use as H3 receptor ligands” (Cephalon, Inc., priority 2006, dated 2013)", "key": {"[1]": {"biological_target": "T1, rat histamine H3 receptor (Rattus norvegicus, UniProt Q9QYN8)", "T1 construct": "encoding the entire 445-amino-acid rat histamine H3 receptor; expressed in transfected cells", "T1 sequence (Q9QYN8 whole entry)": "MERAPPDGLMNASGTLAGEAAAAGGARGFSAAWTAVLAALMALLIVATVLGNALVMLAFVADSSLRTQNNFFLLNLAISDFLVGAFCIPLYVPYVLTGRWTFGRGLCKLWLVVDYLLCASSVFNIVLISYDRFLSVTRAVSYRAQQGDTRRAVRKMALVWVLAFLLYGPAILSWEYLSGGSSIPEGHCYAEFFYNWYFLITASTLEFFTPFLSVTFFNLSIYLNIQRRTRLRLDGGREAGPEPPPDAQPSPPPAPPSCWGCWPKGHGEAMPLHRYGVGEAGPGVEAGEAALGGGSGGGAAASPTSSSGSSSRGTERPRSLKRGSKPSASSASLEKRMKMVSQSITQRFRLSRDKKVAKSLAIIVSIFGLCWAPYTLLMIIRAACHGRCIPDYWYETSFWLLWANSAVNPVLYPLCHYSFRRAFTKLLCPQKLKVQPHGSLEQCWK", "assay": "Rat H3 radioligand binding ([3H]-N-alpha-methylhistamine, CHO-A3 cell membranes, SPA)", "conditions": "Table B, binding constant as letter class; read-out: rat H3 Ki", "how_it_was_run": "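Scintillation proximity displacement of about 1 nM [3H]-N-alpha-methylhistamine, test compound 0.01 nM-30 μM, 4 h, room temperature, in the dark. Receptor source: rat H3 stably transfected into CHO-A3 cells, 10 μg membrane protein, Tris-HCl pH 7.4/MgCl2/BSA buffer. Nonspecific binding defined by 10 μM clobenpropit.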"}, "human H3 receptor": {"biological_target": "T2, human H3 receptor (Homo sapiens, UniProt Q9Y5N1)", "T2 construct": "expressed in transfected cells", "T2 sequence (Q9Y5N1 whole entry)": "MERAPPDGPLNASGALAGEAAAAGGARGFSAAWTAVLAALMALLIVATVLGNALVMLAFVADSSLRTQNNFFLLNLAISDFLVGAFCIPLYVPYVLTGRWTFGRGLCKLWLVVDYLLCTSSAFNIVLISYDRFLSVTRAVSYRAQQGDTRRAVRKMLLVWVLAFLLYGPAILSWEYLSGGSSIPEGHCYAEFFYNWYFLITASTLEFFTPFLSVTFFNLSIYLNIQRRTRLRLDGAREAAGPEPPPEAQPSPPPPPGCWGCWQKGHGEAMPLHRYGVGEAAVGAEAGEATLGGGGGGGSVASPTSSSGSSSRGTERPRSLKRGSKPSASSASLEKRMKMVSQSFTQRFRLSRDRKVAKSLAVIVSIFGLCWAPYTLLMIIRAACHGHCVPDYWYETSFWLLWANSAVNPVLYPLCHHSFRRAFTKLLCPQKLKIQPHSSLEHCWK", "assay": "Human H3 radioligand binding ([3H]-N-alpha-methylhistamine, CHO cell membranes, SPA)", "conditions": "Table B, binding constant as letter class", "how_it_was_run": "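Scintillation proximity format: bead-proximal [3H]-N-alpha-methylhistamine (approximately 1 nM final) bound to human H3 receptor in CHO membranes was counted after 4 h at room temperature, light-protected. Buffer was pH 7.4 Tris/MgCl2/BSA; test compounds spanned 0.01 nM-30 μM; 10 μM clobenpropit set non-specific binding.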"}}, "data": [{"smiles": "CN(CCCOc1ccc(-c2ccc(=O)[nH]n2)cc1)C1CCC1", "note": "[Example 241, 6-{4-[3-(Cyclobutyl-methyl-amino)-propoxy]-phenyl}-2H-pyridazin-3-one]", "values": [{"measurement": "melting point", "value": "< 50", "unit": "°C"}, {"measurement": "Ki", "setting": "[1]", "value": "101 to 500", "unit": "nM"}, {"measurement": "Ki", "setting": "human H3 receptor", "value": "101 to 500", "unit": "nM"}]}, {"smiles": "CN(CCCOc1ccc(-c2ccc(=O)[nH]n2)cc1)C1CCCC1", "note": "[Example 242, 6-{4-[3-(Cyclopentyl-methyl-amino)-propoxy]-phenyl}-2H-pyridazin-3-one]", "values": [{"measurement": "melting point", "value": "95 to 98", "unit": "°C"}, {"measurement": "Ki", "setting": "[1]", "value": "101 to 500", "unit": "nM"}, {"measurement": "Ki", "setting": "human H3 receptor", "value": "0.1 to 100", "unit": "nM"}]}, {"smiles": "O=C1NN=C(c2ccc(OC3CCN(C4CCC4)CC3)cc2)C2CC12", "note": "(stereo not drawn) [Example 244, 5-[4-(1-Cyclobutyl-piperidin-4-yloxy)-phenyl]-3,4-diaza-bicyclo[4.1.0]hept-4-en-2-one]", "values": [{"measurement": "melting point", "value": "79 to 81", "unit": "°C"}, {"measurement": "Ki", "setting": "[1]", "value": "0.1 to 100", "unit": "nM"}, {"measurement": "Ki", "setting": "human H3 receptor", "value": "0.1 to 100", "unit": "nM"}]}, {"smiles": "C[C@H](COc1ccc(C2=NNC(=O)C3CC23)cc1)CN1CCC[C@H]1C", "note": "(stereo partly drawn) [Example 245]", "values": [{"measurement": "melting point", "value": "112 to 115", "unit": "°C"}, {"measurement": "Ki", "setting": "[1]", "value": "0.1 to 100", "unit": "nM"}, {"measurement": "Ki", "setting": "human H3 receptor", "value": "0.1 to 100", "unit": "nM"}]}, {"smiles": "O=c1ccc(-c2ccc(OCC(O)CN3CCCCC3)cc2)n[nH]1", "note": "(stereo not drawn) [Example 255, 6-[4-(2-Hydroxy-3-piperidin-1-yl-propoxy)-phenyl]-2H-pyridazin-3-one]", "values": [{"measurement": "melting point", "value": 185, "unit": "°C"}, {"measurement": "Ki", "setting": "[1]", "value": "101 to 500", "unit": "nM"}, {"measurement": "Ki", "setting": "human H3 receptor", "value": "101 to 500", "unit": "nM"}]}, {"smiles": "C[C@@H]1CCCN1CC(O)COc1ccc(-c2ccc(=O)[nH]n2)cc1", "note": "(stereo partly drawn) [Example 256, 6-{4-[2-Hydroxy-3-((R)-2-methyl-pyrrolidin-1-yl)-propoxy]-phenyl}-2H-pyridazin-3-one]", "values": [{"measurement": "melting point", "value": 153, "unit": "°C"}, {"measurement": "Ki", "setting": "[1]", "value": "101 to 500", "unit": "nM"}, {"measurement": "Ki", "setting": "human H3 receptor", "value": "0.1 to 100", "unit": "nM"}]}, {"smiles": "C[C@@H]1CCCN1C[C@H](O)COc1ccc(-c2ccc(=O)[nH]n2)cc1", "note": "[Example 257, 6-{4-[(S)-2-Hydroxy-3-((R)-2-methyl-pyrrolidin-1-yl)-propoxy]-phenyl}-2H-pyridazin-3-one]", "values": [{"measurement": "melting point", "value": 156, "unit": "°C"}, {"measurement": "Ki", "setting": "[1]", "value": "0.1 to 100", "unit": "nM"}, {"measurement": "Ki", "setting": "human H3 receptor", "value": "0.1 to 100", "unit": "nM"}]}, {"smiles": "C[C@@H]1CCCN1C[C@@H](O)COc1ccc(-c2ccc(=O)[nH]n2)cc1", "note": "[Example 258, 6-{4-[(R)-2-Hydroxy-3-((R)-2-methyl-pyrrolidin-1-yl)-propoxy]-phenyl}-2H-pyridazin-3-one]", "values": [{"measurement": "melting point", "value": 147, "unit": "°C"}, {"measurement": "Ki", "setting": "[1]", "value": "0.1 to 100", "unit": "nM"}, {"measurement": "Ki", "setting": "human H3 receptor", "value": "0.1 to 100", "unit": "nM"}]}, {"smiles": "O=c1ccc(-c2ccc(OC[C@H](O)CN3CCCCC3)cc2)n[nH]1", "note": "[Example 259, 6-[4-((R)-2-Hydroxy-3-piperidin-1-yl-propoxy)-phenyl]-2H-pyridazin-3-one]", "values": [{"measurement": "melting point", "value": 167, "unit": "°C"}, {"measurement": "Ki", "setting": "[1]", "value": "101 to 500", "unit": "nM"}, {"measurement": "Ki", "setting": "human H3 receptor", "value": "101 to 500", "unit": "nM"}]}]}
